Test results from BigSolDB 2.1.

CN1CC(O)c2cc(N=NC(N)=O)c(O)cc21 (centres undefined)
solubility (mole fraction)
Settings | 278.15 K | 283.15 K | 288.15 K | 293.15 K | 298.15 K | 303.15 K | 308.15 K | 313.15 K | 318.15 K
in DMF | 0.00095 | 0.00115 | 0.00129 | 0.0015 | 0.00177 | 0.00202 | 0.00231 | 0.00277 | 0.00335
in DMSO | 0.00619 | 0.0073 | 0.00863 | 0.01 | 0.0113 | 0.0129 | 0.0146 | 0.0159 | 0.0174
in ethanol | 1.8e-05 | 2.15e-05 | 2.42e-05 | 3.02e-05 | 3.67e-05 | 4.29e-05 | 5.24e-05 | 6.97e-05 | 8.54e-05
in methanol | 3.56e-05 | 4.38e-05 | 5.31e-05 | 6.89e-05 | 8.35e-05 | 9.97e-05 | 0.00012 | 0.000147 | 0.000173
in n-propanol | 1.75e-05 | 2.05e-05 | 2.41e-05 | 2.77e-05 | 3.18e-05 | 3.66e-05 | 4.5e-05 | 5.92e-05 | 7.31e-05
in water | 2.81e-05 | 3.26e-05 | 3.78e-05 | 4.4e-05 | 5.15e-05 | 6.03e-05 | 6.87e-05 | 7.98e-05 | 9.69e-05
